These results are taken from patent US5643927A, “4-p-fluorobenzoyl-1-piperidinyl-propoxy-chromen-4-one derivatives, their preparation and their use in the treatment of psychosis and schizophrenia” (Ferrer Internacional, S.A., priority 1994, dated 1997).

For data set [1], the target named is σ receptors (Cavia porcellus, UniProt Q60492). The data set is described as follows: biochemical. In kind it is binding. The method, then: (§1) Specific binding to σ, D2, D3, 5H2 and 5HT1a receptors has been tested as follows:
σ receptors: A 2-nM solution of radioactive 3-PPP ((+) [^3 H]3-[3-hydroxyphenyl]-N-(1-propyl)-piperidine), which acts as a specific ligand, was incubated with the membrane corresponding to 40 mg of guinea-pig total brain for 90 min at 25° C. buffered at pH 8.5 with Tris.HCl. Thus, total binding of ligand to membranes was attained. Non-specific binding was then determined by adding a micromolar concentration of unlabelled 3-PPP. […] After the incubation was completed, the samples were filtered through a glass fiber filter and then washed three times with Tris.HCl buffer. The amount of receptor-bound radioactivity was retained on the membrane and determined by liquid scintillation counting.
(§2) Values are expressed as IC50 in molar concentrations.

Data set [2] concerns the target T1, 5HT2 receptors (Rattus norvegicus, UniProt P14842).
T1 construct: membrane corresponding to 1 mg of rat cortex; from tissue; host or cells: rat cortex membranes
The data set is described as follows: 5HT2 receptor binding ([3H]ketanserin displacement). The following applies: for IC50: [3H]ketanserin 0.5 nM, rat cortex membrane, 30 min, 35° C., pH 7.4; for specificity over 5HT2 receptors versus D2 receptors (in words): D2 /5HT2 ratio. The protocol: as §1
(§3) 5HT2 receptors: A 0.5 nM solution of radioactive ketanserin ([^3 H]ketanserin), which acts as a specific ligand, was incubated with the membrane corresponding to 1 mg of rat cortex for 30 min at 35° C. buffered at pH 7.4 with Tris.HCl. […] After the incubation was completed, the sample was filtered through a glass fiber filter and then washed three times with Tris.HCl buffer. The amount of receptor-bound radioactivity was retained on the membrane and determined by liquid scintillation counting.
as §2

For data set [3], the target named is T2, 5HT1a receptors (Rattus norvegicus, UniProt P19327).
T2 sequence (P19327 1-422): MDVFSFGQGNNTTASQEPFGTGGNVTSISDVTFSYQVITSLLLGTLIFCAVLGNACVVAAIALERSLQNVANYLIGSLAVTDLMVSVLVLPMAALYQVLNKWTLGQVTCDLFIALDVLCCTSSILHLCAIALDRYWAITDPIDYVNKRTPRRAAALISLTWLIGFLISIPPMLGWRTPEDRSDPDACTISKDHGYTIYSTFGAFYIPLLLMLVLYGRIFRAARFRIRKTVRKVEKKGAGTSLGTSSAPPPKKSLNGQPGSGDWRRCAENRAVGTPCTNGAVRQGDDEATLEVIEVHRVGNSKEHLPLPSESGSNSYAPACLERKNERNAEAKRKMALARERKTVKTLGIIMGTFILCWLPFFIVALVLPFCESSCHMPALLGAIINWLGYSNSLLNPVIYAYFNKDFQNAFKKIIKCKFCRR
The data set is described as follows: biochemical. In kind it is binding. The protocol:
as §1
as §3, with “5HT1a” for “5HT2”, “1” for “0.5”, “[…]” for “ketanserin”, “H]5-OH-DPAT),” for “H]ketanserin),”, “20” for “30”, “Tris.HCl. Non-specific binding was then determined by addition of a 20 micromolar concentration of unlabelled buspirone.” for “Tris.HCl.”
as §2

Data set [4] has as its target T3, D3 receptors (Homo sapiens, UniProt P35462).
T3 construct: purchased RBI; host or cells: mouse fibroblasts (CCL 1,3)
The data set is described as follows: biochemical. In kind it is binding. The protocol:
as §1
D3 receptors: A 0.1 nM solution of radioactive YM-0951 ([^3 H]YM-0951), which acts as a specific ligand, was incubated with the membrane provided by RBI obtained from mouse fibroblasts (CCL 1,3) for 15 min at 37° C., buffered at pH 7.4 with Tris.HCl. […] After the incubation was completed, the sample was filtered through a glass fiber filter and then washed three times with Tris.HCl buffer. The amount of receptor-bound radioactivity was retained on the membrane and determined by liquid scintillation counting.
as §2

In data set [5] the target is D2 receptors (Rattus norvegicus, UniProt P61169). The data set is described as follows: biochemical. In kind it is binding. The method, then:
as §1
D2 receptors: A 2-nM solution of radioactive spiperone ([^3 H]spiperone), which acts as a specific ligand, was incubated with the membrane corresponding to 20 mg of rat striatum for 20 min at 35° C. buffered at pH 7.4 with Tris.HCl. The non-specific binding was then determined by addition of a micromolar concentration of unlabelled spiperone. […] After the incubation was completed, the sample was filtered through a glass fiber filter and then washed three times with Tris.HCl buffer. The amount of receptor-bound radioactivity was retained on the membrane and determined by liquid scintillation counting.
as §2

Data set [6] is described as follows: animal pharmacological tests (overall statement). The following applies: in vivo.
The subject of data set [7] is apomorphine-induced climbing behaviour. The experiment in a line: Test (C): Inhibition of apomorphine-induced climbing behaviour. The class given is in vivo, Male Swiss mice. The following applies: Mus musculus, 1 h; oral, mice; apomorphine 1 mg/kg s.c. after 60 min; climbing assessed after further 60 min. The protocol: One week prior to experiment, animals were kept in our facilities at a temperature of 20°-22° C. and 12/12 h light-dark cycle, and had free access to food and water. Two hours prior to experiment, the animals were placed in individual cages without access to food.
Two additional assessments were performed at 10-min intervals.
The walls of the box were made of translucent methacrylate except one of the lateral surfaces (7.5 cm wide) which was a 3-mm wire mesh. […] If an animal keeps several positions within the 2-min observation, the seconds elapsed in each position will be recorded. Finally, mean scoring was calculated.

Data set [8] has as its system catalepsy. The experiment in a line: catalepsy in rats after oral administration (extrapyramidal effects). The class given is in vivo. The following applies: rats, oral.
Test in data set [9]: as above
The class given is in vivo. The following applies: rat, in vivo, po.

[10] abbreviates: [3H]spiperone 2 nM, rat striatum membrane, 20 min, 35° C., pH 7.4, read-out: IC50 (M) D2.
Setting [11] is: [3H]3-PPP 2 nM, guinea-pig total brain membrane, 90 min, 25° C., pH 8.5, read-out: IC50 (M) σ.
The mark [12] stands for this setting: [3H]5-OH-DPAT 1 nM, rat cortex membrane, 20 min, 35° C., pH 7.4, read-out: IC50 (M) 5HT1A.
[13] abbreviates: [3H]YM-0951 0.1 nM, membrane from mouse fibroblasts (CCL 1,3), 15 min, 37° C., pH 7.4, read-out: IC50 (M) D3.

SMILES strings stand for the structures. Where a name gives a salt, the structure may show the parent alone. Read-outs that look alike come from different tables or passages of the source.

T1 sequence (P14842 whole entry): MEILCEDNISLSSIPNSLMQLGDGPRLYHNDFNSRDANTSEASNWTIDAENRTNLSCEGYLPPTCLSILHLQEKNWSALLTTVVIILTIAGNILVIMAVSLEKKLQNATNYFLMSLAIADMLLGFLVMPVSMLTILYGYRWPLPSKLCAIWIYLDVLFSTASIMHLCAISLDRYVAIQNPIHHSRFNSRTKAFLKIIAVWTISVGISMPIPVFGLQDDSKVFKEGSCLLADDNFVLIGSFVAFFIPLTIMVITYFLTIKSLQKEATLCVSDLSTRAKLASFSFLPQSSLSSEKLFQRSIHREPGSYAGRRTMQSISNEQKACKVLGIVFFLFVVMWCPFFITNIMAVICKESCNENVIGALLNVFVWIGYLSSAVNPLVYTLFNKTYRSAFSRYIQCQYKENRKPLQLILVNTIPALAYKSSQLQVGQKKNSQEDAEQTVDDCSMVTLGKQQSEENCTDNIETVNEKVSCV
T3 sequence (P35462 whole entry): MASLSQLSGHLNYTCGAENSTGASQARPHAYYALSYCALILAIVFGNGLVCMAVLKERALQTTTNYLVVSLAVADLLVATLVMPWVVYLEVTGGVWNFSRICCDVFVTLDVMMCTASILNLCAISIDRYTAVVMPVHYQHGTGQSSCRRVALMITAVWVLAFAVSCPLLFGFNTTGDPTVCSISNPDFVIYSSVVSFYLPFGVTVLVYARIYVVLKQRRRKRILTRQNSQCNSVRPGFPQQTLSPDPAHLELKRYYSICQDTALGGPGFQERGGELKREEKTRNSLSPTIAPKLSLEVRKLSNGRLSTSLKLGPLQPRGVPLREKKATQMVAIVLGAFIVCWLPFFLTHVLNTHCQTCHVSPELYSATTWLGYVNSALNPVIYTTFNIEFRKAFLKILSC
Chain of σ receptors (Q60492 whole entry): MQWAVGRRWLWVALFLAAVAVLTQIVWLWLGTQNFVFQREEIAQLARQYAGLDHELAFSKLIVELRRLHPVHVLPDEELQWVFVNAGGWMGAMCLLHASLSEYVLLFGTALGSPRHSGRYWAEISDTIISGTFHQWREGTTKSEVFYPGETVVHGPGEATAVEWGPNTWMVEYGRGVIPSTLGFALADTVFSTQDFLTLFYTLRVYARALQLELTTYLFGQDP
Chain of D2 receptors (P61169 whole entry): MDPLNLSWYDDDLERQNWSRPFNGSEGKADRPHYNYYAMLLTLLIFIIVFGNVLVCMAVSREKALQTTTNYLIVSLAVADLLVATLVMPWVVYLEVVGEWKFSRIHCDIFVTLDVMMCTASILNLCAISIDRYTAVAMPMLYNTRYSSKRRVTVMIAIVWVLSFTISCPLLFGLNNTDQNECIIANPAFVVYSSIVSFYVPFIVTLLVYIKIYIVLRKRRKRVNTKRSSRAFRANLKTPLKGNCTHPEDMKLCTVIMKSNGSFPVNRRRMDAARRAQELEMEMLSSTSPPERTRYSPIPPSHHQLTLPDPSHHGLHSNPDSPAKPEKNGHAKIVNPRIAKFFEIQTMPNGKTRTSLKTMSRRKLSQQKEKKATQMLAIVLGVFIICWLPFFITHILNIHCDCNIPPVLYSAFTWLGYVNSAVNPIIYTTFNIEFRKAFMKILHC

As to `Cc1coc2cc(OCCCN3CCC(C(=O)c4ccc(F)cc4)CC3)ccc2c1=O` [Example 3, 7-[3-(4-p-fluorobenzoyl-1-piperidinyl)propoxy]-3-methyl-chromen-4-one hydrochloride], the IC50 in data set [1] was 2.43e-07 M; in data set [2], 82 nM; in [3], 7.64e-07 M; in [4] it was 1.94e-07 M; in data set [5], 1.29e-07 M.
`Cl.O=C(c1ccc(F)cc1)C1CCN(CCCOc2ccc3c(=O)c(CO)coc3c2)CC1` [Example 4, 3-Hydroxymethyl-7-[3-(4-p-fluorobenzoyl-1-piperidinyl)propoxy]-chromen-4-one hydrochloride] registered a half-maximal inhibitory concentration (IC50) in data set [2] of 47.4 nM. The “D2 /5HT2” value in data set [2] (ratio of IC50 D2 to IC50 5HT2) is listed as 4.01. Moreover, in [6], the “activity in animal pharmacological tests (in words)” value is recorded as “very active in animal pharmacological tests”. This compound came in with an ED50 in data set [7] of 3.2 mg/kg. Also, the “extrapyramidal effects (in words)” value in data set [8] is “did not show very important extrapyramidal effects”. In addition, the TD50 in data set [9] came out at 15 mg/kg.
Consider `OC(CCCN1CCN(c2ncc(F)cn2)CC1)c1ccc(F)cc1` (centres unmarked) [BMY-14802, reference compound], for which the values for the half-inhibitory concentration (IC50) in [2] and in data set [5] (setting [10]) were 1150 nM and 1.59e-05 M, respectively.
`Cl.O=C(c1ccc(F)cc1)C1CCN(CCCOc2ccc3c(=O)ccoc3c2)CC1` [Example 1, 7-[3-(4-p-fluorobenzoyl-1-piperidinyl)propoxy]chromen-4-one hydrochloride]: the IC50 is 1.46e-08 M in [1] (setting [11]); 17.1 nM in data set [2]; 1.56e-06 M in data set [3] (setting [12]); 6.88e-08 M in data set [4] (setting [13]); 4.36e-07 M in data set [5] (setting [10]). Further, the “specificity over 5HT2 receptors versus D2 receptors (in words)” value in data set [2] (hydrochloride) was “the most specific over 5HT2 receptors versus D2 receptors”; in data set [2] (listed as Ex. 1, hydrochloride) it was “surpasses BMY-14802 and risperidone in D2 /5HT2 ratio”. In addition, in data set [4] (compared with 7-OH-DPAT), the “activity on D3 receptors (in words)” value is recorded as “active on D3 receptors in the same order as 7-OH-DPAT”.
For the compound `Cc1cc(=O)c2ccc(OCCCN3CCC(C(=O)c4ccc(F)cc4)CC3)cc2o1` [Example 2, 7-[3-(4-p-fluorobenzoyl-1-piperidinyl)propoxy]-2-methyl-chromen-4-one hydrochloride], the IC50 in data set [1] (setting [11]) was 7.99e-07 M; in data set [2] it was 56.6 nM; in [3] (setting [12]) it was 1.57e-06 M; in data set [4] (setting [13]), 8.55e-07 M; in data set [5] (setting [10]), 3.74e-07 M.

One may read the IC50 as the concentration that inhibits the measured activity by half. Broadly, the ED50 is the dose that gives a 50% effect, or the effect in half of the subjects.
